The record followed here is patent US11819507B2, “Cholecalciferol sulfate salts and their use for the treatment of vitamin D deficiency” (CFSO GMBH, priority 2015, dated 2023).

A short description of this series: Applying the transdermal formulation of Example 8 to skin; residue on the skin checked by TLC. Type of series: in vivo. To be noted: about 2 ml of the formulation of Example 8 applied in a thin layer, allowed to penetrate for 4 hours; skin wiped with 96% ethanol cotton pad, extract examined by TLC. The method, then: About 2 ml of the formulation prepared in Example 8 were applied in a thin layer to the skin of a subject and allowed to penetrate for 4 hours. Subsequently, the skin was well wiped using a sterile cotton pad soaked with 96% ethanol. The cotton pad was boiled with additional 96% ethanol and squeezed. The ethanol was evaporated on a rotary evaporator, and a small amount of chloroform-methanol (9:1 Vol./Vol.) mixture was added to the flask.

On to `C=C1CCC(OS(=O)(=O)O)CC1=CC=C1CCCC2(C)C1CCC2C(C)CCCC(C)C.NCCCCC(N)C(=O)O` [L-lysine cholecalciferol sulfate], for which the “L-lysine cholecalciferol sulfate remaining on the skin (TLC on silica gel)” value is listed as “substantially no”.
